Melting point data for 88 compounds are collected here from a melting point compilation (Tetko et al.; mined from patent text by program, amines drawn as free bases though some values may be those of a salt).

The melting point is the temperature, or range, at which the solid turns liquid. Compound `COC(=O)C1=C(O)CCc2ccc(OC)cc21` showed a melting point of 48 to 48.5 °C.

`CC(c1oc2ccccc2c(=O)c1-c1ccc(F)cc1)n1cnc2c(N)ncnc21` (stereo not drawn): the melting point lay in the range of 210 to 212 °C.

`CCOc1nn(Cc2ccc(OCc3nc(-c4ccccc4)oc3C)cc2)cc1CCC(=O)O` registered a melting point of 96 to 97 °C.

The compound `CCSc1ccc2c3c(cccc13)C(=O)N2` showed a melting point of 144 to 146 °C.

In turn, `COc1cc(C2=NCCO2)cc(OC)c1C(C)=O` displayed a melting point of 135 to 137 °C.

In turn, `c1ccc(CSc2nc3sccn3n2)cc1` returned a melting point of 91 to 93 °C.

`CCCCn1c(=O)c(-c2c(Cl)cccc2Cl)cc2cnc(N)nc21` showed a melting point of 202 to 205 °C.

On to `Cc1cc(C)c(C=O)c(O)c1C`, for which the melting point lay within 74 to 75.5 °C.

In turn, `CCN(CC)C(=O)Oc1cc(CN/C=C2\C(=O)NC(=O)c3ccc(I)cc32)ccc1OC` displayed a melting point of 128 to 130 °C.

In turn, `c1ccc2c(c1)-c1sccc1C2Cc1ccncc1` (stereo not drawn) had a melting point of 91 to 93 °C.

In turn, `CN(C)C(=O)c1cc(CN2C(=O)C3(COc4cc5c(cc43)OCO5)c3ccccc32)oc1C(F)(F)F` (stereo not drawn) showed a melting point of 96 to 98 °C.

For the compound `CC(=O)OCn1c(C(=O)OC(C)C)nc(Cl)c1Cl`, the melting point is 81 to 82 °C.

In turn, `COc1ccc(C(=O)c2cccc(S(N)(=O)=O)c2)cc1` gave a melting point of 119 to 122 °C.

`COC(=O)C1CCN2C(=O)C(=O)c3cc(Br)cc1c32` (stereo not drawn) had a melting point of 150 to 151 °C.

The compound `C#CCOc1ncc(Cl)cc1OC` registered a melting point of 62 to 64 °C.

`CCC(C)NC(=O)c1nc2cnn(CC)c2nc1-c1ccccc1` (stereo not drawn) returned a melting point of 150 to 151 °C.

`CCOC(=O)C1=Cc2cc(Br)ccc2OCC1` yielded a melting point of 86 to 87 °C.

Regarding `O=C(CCCN1CCC(c2noc3cc(F)ccc23)CC1)c1cc2c(s1)CCCNC2=O`, the melting point is 142 to 143 °C.

Turning to `CCCC1=C([N+](=O)[O-])C(c2ccccc2Br)c2c[nH]nc2N1` (stereo not drawn), the melting point was determined as 226 °C.

In turn, `CCNC(=O)c1c([Si](C)(C)C)sc2ccccc12` registered a melting point of 121 to 124 °C.

As to `Cc1cc(C2(C(F)(F)F)CC(C#N)=C(c3ccccc3)O2)ccc1NC(=O)OC(C)(C)C` (stereo not drawn), the melting point is 46 to 49 °C.

As to `OCCC#Cc1ccc2c(-c3ccc(Cl)cc3)nsc2c1`, the melting point lay within 128 to 129 °C.

Compound `COc1cc(C(=O)N2Cc3ccccc3Cc3ccccc32)ccc1NC(=O)c1ccccc1C` showed a melting point of 209 to 210 °C.

Consider `Nc1ccc(-n2cc(C(F)(F)F)ccc2=O)c(Cl)c1`, for which the melting point was 136 to 138 °C.

Compound `O=c1c2c(Cc3cccs3)n[nH]c2c2cccnc2n1-c1cccc(OC(F)(F)F)c1` came in with a melting point of 234 to 238 °C.

Take `Cc1ccc(S(=O)(=O)NC(=O)C(c2cc3c(cc2Cl)OCO3)c2cn(C)c3cc(CO)ccc23)cc1` (stereo not drawn): the melting point fell in the range of 207 to 209 °C.

`C[C@H]1N(C(=O)c2ccc(C(F)(F)F)cc2)CC(F)O[C@@]1(Cn1cncn1)c1ccc(Cl)cc1Cl` (relative stereo) had a melting point of 151 to 156 °C.

Consider `O=C(O)C(=O)c1ccc(OCCOc2ccc3ccccc3c2)c([N+](=O)[O-])c1`, for which the melting point amounted to 164 °C.

Turning to `CCCCCCCCCCCCCCCCCCOCCOCCOC(=O)NCc1ccccn1`, the melting point was in the range of 61 to 62 °C.

`COC1CCN(c2cc(NC(=O)OC(C)(C)C)c(N)cc2C#Cc2ccccc2)CC1`: the melting point lay in the range of 173 to 176 °C.

Compound `CC(CCC(=O)N(C)C#N)C(=O)N(C)C#N` (stereo not drawn) gave a melting point of 59.2 to 60.9 °C.

On to `COc1ccc(S(=O)(=O)N(C)C)c(N)c1`, for which the melting point lay within 59 to 64 °C.

On to `CN(CC(=O)O)C(=O)CCSC(=O)c1ccccc1`, for which the melting point is 139 to 140 °C.

On to `CC(=O)OC[C@H]1NC(=O)[C@@H](Cc2cn(C)c3ccccc23)NC1=O`, for which the melting point lay within 250 to 252 °C.

In turn, `COc1cc(-c2cnc3[nH]cc(C(=O)N4CCCC4)c3n2)cc(OC)c1OC` registered a melting point of 210 to 212 °C.

In the case of `CC(C)(C)c1cccc(C[C@@H](NC(=O)c2cccc3c2C=CCCC3)[C@@H](O)c2cccc(Cl)c2)c1` (racemic), the melting point lay in the range of 104 to 105 °C.

For `C[Si](C)(c1ccc(N(c2ccccc2)c2ccccc2)cc1)c1ccc(N(c2ccccc2)c2ccccc2)cc1`, the melting point lay in the range of 170 to 172 °C.

Take `Oc1ccc(CCn2ccn(C3CCc4ccccc4C3)c2=S)cc1O` (stereo not drawn): the melting point lay in the range of 165 to 167 °C.

In the case of `N=C1c2nc[nH]c2N(Cc2ccc(Cl)cc2)C2=NCCN12`, the melting point lay in the range of 296 to 299 °C.

The compound `NC(=O)CCc1ccc(F)cc1F` registered a melting point of 107 to 108 °C.

With `O=C(O)c1cc(-n2c(-c3ccc([N+](=O)[O-])cc3)cc3c2CCCC3)ccc1O`, the melting point lay within 241 to 242 °C.

Take `CC1=C(CC(=O)O)CN(C)N1`: the melting point fell in the range of 191 to 192 °C.

Take `N=C(NN=Cc1ccc(OC(F)(F)C(F)F)cc1)NN=Cc1ccc(C(F)(F)F)cc1`: the melting point lay in the range of 132 to 137 °C.

The compound `CC(=O)Nc1ccc(S(=O)(=O)NC23CC4CC(CC(C4)C2)C3)cc1` gave a melting point of 290 °C.

In turn, `CC(O)c1c(-c2ccc(F)cc2)cc2c3c1ccn3C(=O)CNC2` (stereo not drawn) gave a melting point of 220 to 222 °C.

For the compound `Cc1cc(CC#N)cc(Cc2nc3c(F)c(F)ccc3s2)c1`, the melting point is 84 to 86 °C.

`O=C1NC(=O)c2ccc(Br)cc2/C1=C/N1CCN(CCN2CCOCC2)CC1` came in with a melting point of 156 °C.

For `c1ccc(Oc2ncc(-c3cnc(-c4ccccc4)[nH]3)cn2)cc1`, the melting point worked out at 254 °C.

`CN1Cc2c(-c3noc(CCl)n3)ncn2-c2cccc(F)c2C1=O` registered a melting point of 206 °C.

The compound `O=C(C=Cc1ccco1)c1cnc2sc3c(n12)CCCCC3` showed a melting point of 161 to 162 °C.

With `CCN1CCN(c2ccnc3sc(C(N)=O)c(N)c23)CC1`, the melting point was in the range of 218 to 219 °C.

Turning to `COc1ccc2c(c1)C1Cc3ccccc3C1N2C` (stereo not drawn), the melting point was found to be 72 °C.

Turning to `CCCCCC(CC(=O)Nc1cc(C(N)=O)ccc1C(C)(C)C)c1cccc(OC)c1OC` (stereo not drawn), the melting point is 89 to 90 °C.

On to `Cc1ccc2c(c1)N(CC(=O)c1ccccc1C)C(=O)C(NC(=O)Nc1cccc(C(=O)O)c1)CN2C(=O)CC(C)C` (stereo not drawn), for which the melting point fell in the range of 202 to 205 °C.

For the compound `CC(=O)c1ccc2c(c1O)CC(S(C)(=O)=O)CO2` (stereo not drawn), the melting point lay in the range of 158 to 162 °C.

In turn, `COCCCn1nnnc1-c1cc(-c2cc(C(C)C)ccc2OC)c(OCc2ccccc2)cc1OCc1ccccc1` had a melting point of 102 to 104 °C.

Regarding `CCCCCc1cnc(-c2ccc(F)cc2)nc1`, the melting point is 28.6 °C.

Turning to `CN1CCN(CCn2c3ccccc3c(=O)c3ccccc32)CC1`, the melting point was 156 to 157 °C.

The compound `COc1cc(OC)nc(NC(=O)NS(=O)(=O)c2c(Cl)cccc2Cn2cncn2)n1` had a melting point of 220 to 221 °C.

Regarding `CCOCc1cc2ccccc2oc1=Nc1ccccc1`, the melting point fell in the range of 71 to 72 °C.

In turn, `COc1ccc(C2=NN(c3ccc(OCCCCBr)cc3)C(=O)[C@@H]3CC=CC[C@H]23)cc1OC` came in with a melting point of 38 to 43 °C.

Consider `N#CC(=O)c1ccccc1Br`, for which the melting point was 64 °C.

As to `Fc1ccc(C(c2ccncc2)C2CCCCC2)cc1` (stereo not drawn), the melting point lay within 78 to 81 °C.

In turn, `COc1cc(-n2cc(C(=O)O)c(=O)c3cc(F)c(F)c(Cl)c32)ccc1F` displayed a melting point of more than 280 °C.

With `c1cncc(-c2cc(C3CC3)on2)c1`, the melting point is 70 to 73 °C.

Consider `O=C1CCCCN1CCC(=O)N1CCC(C2c3ncc(Br)cc3CCc3cc(Cl)cc(Br)c32)CC1` (single isomer, unassigned; (+)), for which the melting point lay in the range of 138 to 139 °C.

In turn, `O=C(c1ccccc1)N1CCNc2ncccc21` showed a melting point of 166 to 168 °C.

`CC(C)(C)C(NC(=O)c1ccc(Cl)cc1)NC(=NC#N)NCc1cccc(Cl)c1` (stereo not drawn): the melting point lay in the range of 178 to 180 °C.

For the compound `NS(=O)(=O)c1cnc(NC(=O)c2cnn3c(C(F)(F)F)cc(-c4ccc(C(F)(F)F)cc4)nc23)s1`, the melting point came out at 309 °C.

For the compound `CC(C)(C)OC(=O)C(N)c1nc(-c2ncn3c2C2CCN2C(=O)c2cc(F)ccc2-3)no1` (stereo not drawn), the melting point was in the range of 147 to 150 °C.

Take `COc1cc2ncnc(N3CCN(C(=O)Nc4ccc(CN5CCCCC5)cc4)CC3)c2cc1OC`: the melting point lay in the range of 122 to 123 °C.

`C1=C(c2cccs2)CCC(N2CCN(c3ccccn3)CC2)C1` (stereo not drawn) showed a melting point of 156 to 158 °C.

`COc1c(C(=O)OCc2ccccc2)nc(-c2ccc(Cl)c(OC)c2F)c(F)c1N`: the melting point came to 119 °C.

`C[C@@H]1Nc2nc(Cl)ccc2NC1=O` showed a melting point of 236 to 237 °C.

`C=CCNc1nc(NC(C)(C)C)nc2ccc([N+](=O)[O-])cc12` had a melting point of 139 to 140 °C.

For `COCCOc1ccc(CN)cc1O`, the melting point is 89 to 90 °C.

`O=C(O)C1Cc2ccccc2CN1C(=O)CCS` (stereo not drawn): the melting point lay within 55 to 58 °C.

With `CCc1nc2c(-c3cc4c(c(Br)c3C)OCC4)ncnc2n1C(C1CC1)C1CC1`, the melting point lay in the range of 179 to 180 °C.

For `CCOC(=O)c1cc(F)c2c(c1Cl)C(OCCF)CCS2(=O)=O` (stereo not drawn), the melting point fell in the range of 87 to 89 °C.

`Cc1c(C(=O)OCc2ccccc2)sc(NC(=O)c2ccccc2)c1C(=O)OC(C)(C)C` came in with a melting point of 134 to 135 °C.

`CC(=O)c1ccc(CCNS(=O)(=O)c2ccc(F)cc2)cc1` yielded a melting point of 106 to 107 °C.

On to `Cc1ccc(-n2ncc(C(=O)O)c2C(N)=O)cc1C`, for which the melting point lay in the range of 231 to 232 °C.

For the compound `CCCCCCCCCCCCCCOc1ccc(CC(=O)OCC)cc1OC`, the melting point fell in the range of 40 to 41 °C.

The compound `CC1(C)CC(=O)c2cc(Br)ccc21` yielded a melting point of 117 to 118 °C.

`CC(COc1ccccc1)C1CC=C2C3=C(CCC21C)C1(C)CCC(O)C(C)(C)C1CC3` (stereo not drawn) had a melting point of 134 to 137 °C.

`CC(C)(C)C(NC(=O)Cc1ccc(Cl)cc1)NC(=NC#N)c1cccc2ncccc12` (stereo not drawn) yielded a melting point of 218 to 220 °C.

In turn, `CCCCc1nn(-c2cc(NC(=O)c3ccccc3)ccc2Br)c(=O)n1Cc1ccc(-c2ccccc2S(=O)(=O)NC(=O)OC(C)(C)C)cc1F` displayed a melting point of 130 to 133 °C.

As to `CCCCCC(CCCCC)=NN=C1NC(=O)C(CC(=O)O)S1` (stereo not drawn), the melting point fell in the range of 134 to 135 °C.
